What was measured:
Type in all cases: physicochemical
[1] = Test on solubility in water; settings: 30 mg in water 1 mL, ultrasonically treated one minute, room temperature 30 minutes or more, absorbance at 310 nm
Experimental: [Test on Solubility in Water]
(§1) The crystal (30 mg) obtained in Example 1 was added to water (1 mL), and was ultrasonically treated for one minute. The solution was left at room temperature for 30 minutes or more, and thereafter the resulting precipitate was centrifuged and the resulting supernatant was diluted with water to analyze the concentration at an absorbance at 310 nm. The concentration was 0.13 mg/mL.
as §1, with “Example 2” for “Example 1”, “was 0.14” for “was 0.13”
as §1, with “The solid (30 mg)” for “The crystal (30 mg)”, “obtained in Comparative Example 1” for “obtained in Example 1”, “concentration was 0.019 mg/mL.” for “concentration was 0.13 mg/mL.”

[2] = Test on stability of crystal (dispersed in water); settings: 0.2 g mixed with water 1 mL, room temperature
Experimental: [Test on Stability of Crystal (Dispersed in Water)]
The crystal (0.2 g) obtained in Example 1 was mixed with water (1 mL).
The solid (0.2 g) obtained in Comparative Example 1 was mixed with water (1 mL).
The crystal (0.2 g) obtained in Comparative Example 2 was mixed with water (1 mL).

[3] = Test on solubility in ethanol; settings: 40 mg in ethanol 2 mL, ultrasonically treated one minute, room temperature 30 minutes or more, absorbance at 330 nm
Experimental: [Test on Solubility in Ethanol]
as §1, with “(40” for “(30”, “ethanol (2” for “water (1”, “dimethyl sulfoxide” for “water”, “330” for “310”, “nm.” for “nm. The concentration was 0.13 mg/mL.”
as §1, with “(40” for “(30”, “2” for “1”, “ethanol (2” for “water (1”, “dimethyl sulfoxide” for “water”, “330” for “310”, “nm.” for “nm. The concentration was 0.13 mg/mL.”
The crystal (40 mg) obtained in Comparative Example 1 was added to ethanol (2 mL), and was ultrasonically treated for one minute. The solution was left at room temperature for 30 minutes or more, and thereafter the resulting precipitate was centrifuged and the resulting supernatant was diluted with dimethyl sulfoxide to analyze the concentration at an absorbance at 330 nm. The concentration was 1.4 mg/ML.

[4] = Dispersibility in ethanol: gelation test; settings: for Homogeneity of ethanol mixture (upper and lower portions) / Appearance of ethanol mixture after standing: 20 mg in ethanol 2 mL; for Homogeneity of ethanol mixture (upper and lower portions): left at 20° C. for two to three hours; for Appearance of ethanol mixture after standing: ultrasonically treated one minute, left at 20° C. for two hours; for Appearance after adding ethanol mixture to water: 20 μL of gelled product / ethanol mixture added to water 1 mL
Experimental: [Dispersibility in Ethanol: Gelation Test]
The crystal (20 mg) obtained in Example 1 was added to ethanol (2 mL), and was ultrasonically treated for one minute. […] The gelled product was generated through the following process: the reduced PQQ crystals according to the present invention turned into fibers, and alcohol was encapsulated between these fibers in the form of a net to generate a gel.
The solid (20 mg) obtained in Comparative Example 1 was added to ethanol (2 mL), and was ultrasonically treated for one minute.

| Structure (SMILES) | Solubility in water (concentration of supernatant) [1] [µg/mL] | Appearance dispersed in water after one hour [2] | Solubility in ethanol (concentration of supernatant) [3] [µg/mL] | Homogeneity of ethanol mixture (upper and lower portions) [4] | Appearance of ethanol mixture after standing [4] | Appearance after adding ethanol mixture to water [4] | Appearance dispersed in water after two days [2] | Dispersibility (overall conclusion) ([4]; ethanol gelation test, compared with Comparative Example 1) |
| --- | --- | --- | --- | --- | --- | --- | --- | --- |
| O=C(O)c1cc(C(=O)O)c2c(n1)c(O)c(O)c1cc(C(=O)O)[nH]c12 [Comparative Example 1, reduced pyrroloquinoline quinone] | 19 | a solution having a black solid sedimented therein | 1400 | had a difference between the upper and lower portions | a black solid was sedimented and the solution was slightly yellowed | a solution having a black solid sedimented therein | – | – |
| O=C(O)c1cc(C(=O)O)c2c(n1)c(O)c(O)c1cc(C(=O)O)[nH]c12 [Comparative Example 2, reduced pyrroloquinoline quinone] | – | dark red dispersion | – | – | – | – | a black precipitate was generated and the solution was not homogenous | – |
| O=C(O)c1cc(C(=O)O)c2c(n1)c(O)c(O)c1cc(C(=O)O)[nH]c12 [Example 1, reduced pyrroloquinoline quinone] | 130 | yellow homogenous dispersion | 8500 | homogenous without any difference between upper and lower portions | orange gelled product | yellow homogenous dispersion | the dispersion remained the same | significantly high dispersibility |
| O=C(O)c1cc(C(=O)O)c2c(n1)c(O)c(O)c1cc(C(=O)O)[nH]c12 [Example 2, reduced pyrroloquinoline quinone] | 140 | – | 3200 | – | – | – | – | – |

Reference: patent US9732079B2, “Yellow reduced pyrroloquinoline quinone crystal and method of producing the same, and food, pharmaceutical, gel, composition and method of producing composition” (Mitsubishi Gas Chemical Company, Inc., priority 2013, dated 2017)
